Measurements taken from patent US20090137572A1, “2-substituted-4-heteroaryl-pyrimidines useful for the treatment of proliferative disorders” (priority 2004, published 2009).

Assays:
Type in all cases: biochemical
Aurora A kinase = molecular target: T1, Aurora A kinase (Homo sapiens, UniProt O14965); assay: Aurora-A (human) kinase assay (Kemptide substrate); details: pIC50 is -log(IC50, M); 15 μM ATP; read-out: Kinase Inhibition pIC50 Aurora A kinase (converted)
T1 construct: purchased
T1 sequence (O14965 1-403): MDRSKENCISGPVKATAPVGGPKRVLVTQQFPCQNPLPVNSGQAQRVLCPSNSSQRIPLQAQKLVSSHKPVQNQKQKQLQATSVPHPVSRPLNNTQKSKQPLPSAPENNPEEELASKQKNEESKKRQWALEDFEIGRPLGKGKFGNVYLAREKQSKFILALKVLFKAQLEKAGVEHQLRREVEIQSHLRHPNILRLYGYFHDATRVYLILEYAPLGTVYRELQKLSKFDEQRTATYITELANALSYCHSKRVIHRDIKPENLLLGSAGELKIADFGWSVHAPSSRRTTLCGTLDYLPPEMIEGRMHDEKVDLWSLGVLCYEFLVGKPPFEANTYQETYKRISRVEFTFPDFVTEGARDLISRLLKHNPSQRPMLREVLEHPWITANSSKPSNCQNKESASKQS
Summary of the method: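 Radiometric filter-binding assay: commercial aurora-A kinase (5-10 ng) with 200 μM Kemptide in MOPS/EDTA pH 7.0, started with 10 mM Mg acetate and 15 μM ATP plus [γ-33P]-ATP. Incubated 40 min at room temperature, stopped with phosphoric acid, incorporated 33P counted by scintillation.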

CDK7/cyclin H = CDK7/cyclin H (Homo sapiens, UniProt P50613); assay: CDK 7 assay (CTD peptide substrate); details: read-out: Kinase Inhibition pIC50 CDK7-cyclin H (converted)
CDK7/cyclin H, sequence (P50613 whole entry): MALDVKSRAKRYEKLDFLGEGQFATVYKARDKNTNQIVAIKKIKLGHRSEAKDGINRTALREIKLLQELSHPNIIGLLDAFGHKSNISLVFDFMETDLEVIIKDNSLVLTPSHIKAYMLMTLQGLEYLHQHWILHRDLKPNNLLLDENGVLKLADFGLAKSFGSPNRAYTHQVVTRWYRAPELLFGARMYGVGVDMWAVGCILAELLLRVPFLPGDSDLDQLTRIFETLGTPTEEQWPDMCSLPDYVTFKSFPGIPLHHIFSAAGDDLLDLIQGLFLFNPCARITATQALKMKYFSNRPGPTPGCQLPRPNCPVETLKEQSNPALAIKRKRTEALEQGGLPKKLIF
CDK7/cyclin H, sequence (P51946 whole entry partner): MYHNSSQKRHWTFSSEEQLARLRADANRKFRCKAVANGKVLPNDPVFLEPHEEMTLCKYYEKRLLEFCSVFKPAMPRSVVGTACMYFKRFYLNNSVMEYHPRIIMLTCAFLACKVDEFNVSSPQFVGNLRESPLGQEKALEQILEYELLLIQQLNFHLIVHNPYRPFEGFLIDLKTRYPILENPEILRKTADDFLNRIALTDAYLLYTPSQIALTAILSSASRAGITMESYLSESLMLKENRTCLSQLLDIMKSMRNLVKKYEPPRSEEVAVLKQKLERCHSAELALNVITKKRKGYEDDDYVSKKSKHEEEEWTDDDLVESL
Summary of the method: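 Test compounds were incubated with recombinant human kinase/cyclin complex and CTD peptide substrate for 45 min at 30° C (pH 7.2, 100 μM ATP spiked with 32PγATP, 15 mM MgCl2). Reactions were stopped on ice, avidin was added, and phosphorylated peptide was captured on P81 filters and counted by scintillation.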

[1] = molecular target: T2, protein kinases (panel of Table 4) (Homo sapiens, UniProt Q96GD4); assay: Kinase selectivity profile, kinase inhibition IC50 (Table 4), ATP 100 μM; details: kinase Aurora B
T2 construct: other: kinase Aurora B; ATP 100 μM
T2 sequence (Q96GD4 whole entry): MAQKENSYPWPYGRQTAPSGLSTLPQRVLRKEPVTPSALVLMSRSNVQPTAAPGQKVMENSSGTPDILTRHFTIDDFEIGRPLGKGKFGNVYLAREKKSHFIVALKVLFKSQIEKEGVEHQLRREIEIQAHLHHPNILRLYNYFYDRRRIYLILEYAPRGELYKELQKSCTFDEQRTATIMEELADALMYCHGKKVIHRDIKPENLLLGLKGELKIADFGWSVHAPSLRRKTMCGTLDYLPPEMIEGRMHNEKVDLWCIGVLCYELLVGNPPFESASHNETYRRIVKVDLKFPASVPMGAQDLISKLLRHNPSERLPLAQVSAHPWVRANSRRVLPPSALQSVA
Experimental: (§1) For the assays shown in Table 3, the kinases were assayed at the following ATP concentrations: SAPK4, PKBΔph, GSK3b, SAPK3, CK2, MKK1, PIM2, IKKB, ERK8, and PRK2 at 5 μM; JNK, PRAK, ROCK-II, SAPK2b, CDK2, CHK1, MSK1, CSK, P70S6K, PKA, CK1, MAPKAP-K2, SGK, PKCa, PDK1, NEK 7, and MAPKAP-K3 at 20 μM; SAPK2a, LCK, AMPK, MAPK2, DYRK1a, MAPKAP-K1a, NEK-6, NEK2a, PBK, CAMK-1, SRPK-1, JNK3, MNK2, RSK2, MNK1, PKBB, and SmMLCK at 50 μM. For the assays in Table 4 the ATP concentration was 100 μM throughout.

[2] = molecular target: T3, protein kinases (panel of Table 4) (Homo sapiens, UniProt P50750); assay: as above; details: kinase CDK9T1
T3 construct: other: kinase CDK9T1; ATP 100 μM
T3 sequence (P50750 whole entry): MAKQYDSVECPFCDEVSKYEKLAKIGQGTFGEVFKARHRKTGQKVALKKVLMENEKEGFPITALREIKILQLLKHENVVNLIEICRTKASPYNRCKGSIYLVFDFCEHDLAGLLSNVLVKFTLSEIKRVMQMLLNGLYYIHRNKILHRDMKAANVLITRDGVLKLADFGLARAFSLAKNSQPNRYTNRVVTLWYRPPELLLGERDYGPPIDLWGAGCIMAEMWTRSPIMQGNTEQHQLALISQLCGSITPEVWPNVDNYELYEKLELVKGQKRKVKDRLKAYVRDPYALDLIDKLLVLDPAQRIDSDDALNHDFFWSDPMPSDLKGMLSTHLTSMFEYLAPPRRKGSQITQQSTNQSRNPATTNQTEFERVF
Experimental: as §1

[3] = molecular target: T4, protein kinases (panel of Table 4) (Homo sapiens, UniProt P49840); assay: as above; details: kinase GSK3a
T4 construct: other: kinase GSK3a; ATP 100 μM
T4 sequence (P49840 whole entry): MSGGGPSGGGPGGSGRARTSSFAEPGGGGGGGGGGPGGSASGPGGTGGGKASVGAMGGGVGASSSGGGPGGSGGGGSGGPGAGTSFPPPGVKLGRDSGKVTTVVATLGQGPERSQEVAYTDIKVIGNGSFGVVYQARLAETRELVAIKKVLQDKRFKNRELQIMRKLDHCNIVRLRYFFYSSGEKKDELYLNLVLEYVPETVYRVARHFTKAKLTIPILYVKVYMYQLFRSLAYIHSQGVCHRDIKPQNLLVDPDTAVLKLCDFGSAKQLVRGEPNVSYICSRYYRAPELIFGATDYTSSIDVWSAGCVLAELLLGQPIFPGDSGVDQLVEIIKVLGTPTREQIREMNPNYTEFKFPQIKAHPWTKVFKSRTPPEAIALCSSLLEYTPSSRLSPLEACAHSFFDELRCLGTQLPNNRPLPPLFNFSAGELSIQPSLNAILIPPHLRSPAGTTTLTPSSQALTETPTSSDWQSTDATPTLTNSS
Experimental: as §1

Row | IC50 (Aurora A kinase) [nM] | IC50 (CDK7/cyclin H) [nM] | IC50 [1] [nM] | IC50 [2] [nM] | IC50 [3] [nM] | Compound
1 | 39.8 | 50.1 | 20 | 3 | 160 | CNc1nc(C)c(-c2ccnc(Nc3cccc(S(N)(=O)=O)c3)n2)s1 [Compound 19, 3-[4-(4-Methyl-2-methylamino-thiazol-5-yl)-pyrimidin-2-ylamino]-benzenesulfonamide]
2 | 316 | 200 | 260 | 1 | 12 | CNc1nc(C)c(-c2ccnc(Nc3cccc(S(C)(=O)=O)c3)n2)s1 [Compound 27, (3-Methanesulfonyl-phenyl)-[4-(4-methyl-2-methylamino-thiazol-5-yl)-pyrimidin-2-yl]-amine]
3 | 1000 | 3980 | 240 | 22 | 650 | CNc1nc(C)c(-c2ccnc(Nc3ccc(C)c(S(=O)(=O)N4CCOCC4)c3)n2)s1 [Compound 37, [4-(4-Methyl-2-methylamino-thiazol-5-yl)-pyrimidin-2-yl]-[4-methyl-3-(morpholine-4-sulfonyl)-phenyl]-amine]
4 | 501 | 631 | 140 | 28 | 960 | Cc1ccc(Nc2nccc(-c3sc(N)nc3C)n2)cc1S(=O)(=O)N1CCOCC1 [Compound 38, [4-(2-Amino-4-methyl-thiazol-5-yl)-pyrimidin-2-yl]-[4-methyl-3-(morpholine-4-sulfonyl)-phenyl]-amine]
5 | 158 | 631 | 110 | 30 | 290 | COCCNS(=O)(=O)c1cccc(Nc2nccc(-c3sc(N)nc3C)n2)c1 [Compound 55, 3-[4-(2-Amino-4-methyl-thiazol-5-yl)-pyrimidin-2-ylamino]-N-(2-methoxy-ethyl)-benzenesulfonamide]

Row | Compound | IC50 (Aurora A kinase) [nM] | IC50 (CDK7/cyclin H) [nM] | IC50 [1] [nM] | IC50 [2] [nM] | IC50 [3] [nM]
6 | CCNc1nc(C)c(-c2ccnc(Nc3ccc(N4CCNCC4)cc3)n2)s1 [Compound 59, [4-(2-Ethylamino-4-methyl-thiazol-5-yl)-pyrimidin-2-yl]-(4-piperazin-1-yl-phenyl)-amine] | 79.4 | 126 | 16 | 110 | > 10000
7 | Cc1nc(CS(=O)(=O)c2cccs2)sc1-c1ccnc(Nc2ccc(N3CCOCC3)cc2)n1 [Compound 138, {4-[4-Methyl-2-(thiophene-2-sulfonylmethyl)-thiazol-5-yl]-pyrimidin-2-yl}-(4-morpholin-4-yl-phenyl)-amine] | 50.1 | 3160 | – | – | –
